Laboratory results: ChEMBL document CHEMBL5465560, “Selectivity Literature for EUbOPEN Chemogenomic Library” (2024)

Assays:
[1] = biological target: T1, Serine/threonine-protein kinase Nek2 (Homo sapiens) (UniProt P51955); assay: Selectivity interaction (KinomeScan (DiscoverX)) EUB0001079a NEK2; conditions: at 1 µM
T1 sequence (whole entry): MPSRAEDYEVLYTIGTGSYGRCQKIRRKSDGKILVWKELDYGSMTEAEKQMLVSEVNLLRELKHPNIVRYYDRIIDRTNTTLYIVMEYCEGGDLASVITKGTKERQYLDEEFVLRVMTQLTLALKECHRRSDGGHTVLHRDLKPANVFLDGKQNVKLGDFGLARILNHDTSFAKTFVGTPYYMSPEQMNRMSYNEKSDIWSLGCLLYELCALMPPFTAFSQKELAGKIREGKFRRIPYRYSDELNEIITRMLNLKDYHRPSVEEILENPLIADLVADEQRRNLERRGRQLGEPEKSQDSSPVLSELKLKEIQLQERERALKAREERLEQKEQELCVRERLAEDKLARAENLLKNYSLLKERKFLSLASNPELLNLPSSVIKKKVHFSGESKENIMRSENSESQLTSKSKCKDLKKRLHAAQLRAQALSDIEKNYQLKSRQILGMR

[2] = system: T2, Receptor-type tyrosine-protein kinase FLT3 (Homo sapiens), P36888 [K663Q]; assay: Selectivity interaction (KinomeScan (DiscoverX)) EUB0000092b FLT3; conditions: at 10 µM
T2 sequence (whole entry): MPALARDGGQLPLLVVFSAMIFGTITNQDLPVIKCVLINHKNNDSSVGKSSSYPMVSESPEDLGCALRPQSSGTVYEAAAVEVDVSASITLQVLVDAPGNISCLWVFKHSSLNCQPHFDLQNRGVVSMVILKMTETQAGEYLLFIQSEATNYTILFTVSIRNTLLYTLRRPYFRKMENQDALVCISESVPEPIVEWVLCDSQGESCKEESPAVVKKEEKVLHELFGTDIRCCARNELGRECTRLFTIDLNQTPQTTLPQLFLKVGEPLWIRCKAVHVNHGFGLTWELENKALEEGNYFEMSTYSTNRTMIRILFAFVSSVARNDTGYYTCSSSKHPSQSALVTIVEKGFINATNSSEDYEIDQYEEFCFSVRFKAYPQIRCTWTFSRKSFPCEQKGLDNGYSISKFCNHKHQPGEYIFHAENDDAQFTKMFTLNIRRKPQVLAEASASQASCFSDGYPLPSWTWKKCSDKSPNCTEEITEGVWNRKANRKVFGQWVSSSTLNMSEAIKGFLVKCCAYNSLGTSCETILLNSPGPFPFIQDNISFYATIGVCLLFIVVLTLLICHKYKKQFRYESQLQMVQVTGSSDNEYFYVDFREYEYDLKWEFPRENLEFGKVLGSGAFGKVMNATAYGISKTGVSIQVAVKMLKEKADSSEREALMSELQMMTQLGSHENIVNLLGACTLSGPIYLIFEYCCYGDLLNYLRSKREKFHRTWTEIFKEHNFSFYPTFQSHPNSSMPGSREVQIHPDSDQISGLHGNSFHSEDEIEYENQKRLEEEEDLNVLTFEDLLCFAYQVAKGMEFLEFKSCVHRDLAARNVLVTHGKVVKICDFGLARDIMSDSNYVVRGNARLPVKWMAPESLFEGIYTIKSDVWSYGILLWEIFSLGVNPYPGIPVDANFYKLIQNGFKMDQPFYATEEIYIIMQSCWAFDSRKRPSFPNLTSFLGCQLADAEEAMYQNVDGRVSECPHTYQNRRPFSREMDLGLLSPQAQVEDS

[3] = biological target: T3, Serine/threonine-protein kinase ULK1 (Homo sapiens) (UniProt O75385); assay: Selectivity interaction (KinomeScan (DiscoverX)) EUB0000655a ULK1; conditions: at 10 µM
T3 sequence (whole entry): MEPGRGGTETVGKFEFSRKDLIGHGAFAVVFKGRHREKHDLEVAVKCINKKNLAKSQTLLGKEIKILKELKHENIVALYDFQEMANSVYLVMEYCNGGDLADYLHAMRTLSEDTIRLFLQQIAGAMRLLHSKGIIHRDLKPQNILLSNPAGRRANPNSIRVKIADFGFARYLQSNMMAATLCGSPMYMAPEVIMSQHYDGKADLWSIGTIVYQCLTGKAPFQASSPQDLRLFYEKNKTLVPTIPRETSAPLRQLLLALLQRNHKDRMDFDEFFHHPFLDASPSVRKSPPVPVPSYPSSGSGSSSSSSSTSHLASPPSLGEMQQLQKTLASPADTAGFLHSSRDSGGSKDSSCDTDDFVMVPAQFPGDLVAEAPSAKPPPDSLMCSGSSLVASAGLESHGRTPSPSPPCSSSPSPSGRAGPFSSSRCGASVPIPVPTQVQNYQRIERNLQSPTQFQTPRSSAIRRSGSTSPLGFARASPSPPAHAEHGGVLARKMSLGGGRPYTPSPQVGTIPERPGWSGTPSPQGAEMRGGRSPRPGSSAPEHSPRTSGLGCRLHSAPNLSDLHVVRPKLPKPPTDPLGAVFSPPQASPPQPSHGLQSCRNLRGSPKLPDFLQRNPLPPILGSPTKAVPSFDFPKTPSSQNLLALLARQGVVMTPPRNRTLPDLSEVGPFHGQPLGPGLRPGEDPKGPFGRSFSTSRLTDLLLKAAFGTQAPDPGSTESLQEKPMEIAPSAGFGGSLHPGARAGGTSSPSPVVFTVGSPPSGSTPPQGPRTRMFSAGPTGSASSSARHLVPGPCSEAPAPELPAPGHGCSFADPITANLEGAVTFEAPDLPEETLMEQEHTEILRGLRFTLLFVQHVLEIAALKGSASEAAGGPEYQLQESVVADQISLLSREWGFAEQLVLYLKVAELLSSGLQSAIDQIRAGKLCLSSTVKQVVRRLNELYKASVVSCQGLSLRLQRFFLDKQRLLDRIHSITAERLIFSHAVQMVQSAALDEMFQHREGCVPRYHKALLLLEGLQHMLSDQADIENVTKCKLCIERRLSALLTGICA

## Nc1cnc(N2CCc3cc(S(=O)(=O)Nc4c(F)cc(Cl)cc4F)cc(N4CCCC4=O)c32)nc1 [TP-020n]
[1]
  % of control: 89%

## CCC(=O)N1CCN(c2ccc(-n3c(=O)ccc4cnc5ccc(-c6cnc7ccccc7c6)cc5c43)cc2C(F)(F)F)CC1
[2]
  % of control: 23%

## CN(C)CCOc1ccc(-c2nc(-c3ccncc3)c(-c3ccc4c(c3)CC/C4=N\O)[nH]2)cc1
[3]
  % of control: 98%
